IC50 data for three compounds are collected here from patent publication US4670562A, “Dihydropyrrolo[1,2-b]isoquinolinedione oximes” (priority 1986, dated 1987).

Molecules are shown by their SMILES. Where two headings read alike, the source gives them in different places.

For orientation: IC50 means the concentration that gives 50% inhibition.

The target of the test is acetylcholinesterase (Homo sapiens, UniProt P22303). The experiment in a line: Cholinesterase Inhibition Assay (photometric method of Ellman et al.). The class given is biochemical. Background: DTNB colorimetry detects thiols as they appear.
The mark [1] stands for this setting: photometric method of Ellman et al., read-out: Cholinesterase Inhibition IC50.

acetylcholinesterase, sequence (P22303 32-614): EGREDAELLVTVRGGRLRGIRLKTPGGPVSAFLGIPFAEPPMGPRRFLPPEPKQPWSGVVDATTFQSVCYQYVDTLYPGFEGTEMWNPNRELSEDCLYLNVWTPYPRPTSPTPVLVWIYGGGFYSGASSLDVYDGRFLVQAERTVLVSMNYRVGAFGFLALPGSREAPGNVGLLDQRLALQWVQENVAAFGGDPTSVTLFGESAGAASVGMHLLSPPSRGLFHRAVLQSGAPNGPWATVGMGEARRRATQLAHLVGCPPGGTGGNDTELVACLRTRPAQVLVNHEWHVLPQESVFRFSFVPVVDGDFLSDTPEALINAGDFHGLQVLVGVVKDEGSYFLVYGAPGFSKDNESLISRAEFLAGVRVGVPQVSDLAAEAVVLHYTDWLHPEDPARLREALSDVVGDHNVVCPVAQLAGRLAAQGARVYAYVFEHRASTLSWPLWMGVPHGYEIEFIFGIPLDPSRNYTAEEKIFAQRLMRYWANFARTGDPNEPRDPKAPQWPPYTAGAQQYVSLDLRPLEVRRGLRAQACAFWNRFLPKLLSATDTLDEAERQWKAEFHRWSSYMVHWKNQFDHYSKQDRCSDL

Take `c1ccc2c3c(ncc2c1)CCCN3` [1,2,3,4-Tetrahydrobenzo[c]-1,5-naphthyridine]: the 50% inhibitory concentration (IC50) under setting [1] turned out to be 61 µM.

Regarding `O=C(Cc1ccccc1)N1CCCc2ncc3ccccc3c21` [1-(Phenylacetyl)-1,2,3,4-tetrahydrobenzo[c]-1,5-naphthyridine], the IC50 under setting [1] amounted to 320 µM.

For `CN1CCN(C2=Nc3c(ncc4ccccc34)CC2)CC1` [3,4-Dihydro-2-(4-methyl-1-piperazinyl)benzo[c]-1,5-naphthyridine hemihydrate], half-maximal inhibition (IC50) required 840 µM.
